Data published in patent US4720494A, “Anticholinergic eucatropine esters and antiperspirant use thereof” (priority 1984, dated 1988).
pEC50: −log10 of the molar value. Where “and” joins values, the source holds several entries; their conditions need not be identical. Identical values can stand only once.

Assays:
[1] = system: sweating of mouse foot (pilocarpine-stimulated); assay: Mouse foot antiperspirant assay; format: in vivo, ICR/CD-1 male albino mice; details: for antiperspirant potency relative to eucatropine (in words): DCC esters, compared with parent eucatropine; for pEC50: s.c. 5 μL in foot pad, pilocarpine-stimulated sweating, average EC50
Procedure: For the dose-response determination, four or five groups of 10 ICR/CD-1 male albino mice weighing approximately 20 gm were used. The animals were anaesthetized with 0.20 mL of a 250 mg/mL solution of ethyl carbamate injected intraperitoneally. Anticholinergic test solutions using 0.9% aqueous sodium chloride were injected subcutaneously under the plantar foot pads of the right hind feet of 10 mice per concentration. The 26 gauge, 2 in. needle of a Hamilton 5 μL syringe was inserted at the rear of the plantar surface and threaded forward. The dose, 5 μL, was delivered subcutaneously near the interdigital foot pads. Subsequently, both hind feet were coated with a 1:1 suspension of soluble starch in 2% ethanolic iodine-castor oil.
At 5 minutes after test solution injection, sweating was stimulated by injecting each animal intraperitoneally with 0.20 mL of 1 mg/mL pilocarpine.HCl in 0.9% aqueous sodium chloride. The appearance of blue-black spots within five minutes after stimulation by pilocarpine was the criterion for sweating. The criterion for the animals responding to the anticholinergic was absence of sweating on two or more tubercles of the treated foot. A 7X magnifying glass was used to enlarge the foot for evaluation.
As many concentrations were tested as needed to obtain two points with more than 50% but less than 100% of the animals responding and two points with less than 50% but more than 0% of the animals responding.
For some esters it was necessary to alter the concentration interval to obtain the appropriate spread of responses in a minimum of trials. […] Each compound was run at least twice. The average EC50 was used for comparison with other anticholinergics.

[2] = system: pupil light reflex of rabbit eye; assay: Rabbit abolition of light reflex assay (RALR), mydriasis
Excerpt: In order to determine the potential for mydriasis produced by the anticholinergic antiperspirant compositions of our invention, the rabbit abolition of light reflex assay was employed. In this assay, solutions of test compounds are instilled in the eyes of rabbits and response to light stimulus followed as a function of time.
The test animals used were female, New Zealand albino rabbits which were 12 to 14 weeks old when first used for testing. A test group consisted of fifteen animals and could be used 8 to 10 weeks before the rabbits became too large to handle.
Prior to the first use of a rabbit group, a determination of the responsiveness of each pupil to a light stimulus was determined. Under room illumination provided by fluorescent tubes, the bilateral symmetry of the pupil light reflex was ascertained by directing a beam of light from a penlight-type of flashlight into each pupil. If proper response was present, the animals were subsequently used.
The mydriatic response to an anticholinergic was determined in the following manner. The animals were held in wooden restrainer boxes during the test. The distance between the mid-sagittal plane of one animal and that of the immediately adjacent animal was 11 inches. Into one conjunctival sac of each animal was installed 0.1 mL of a given concentration of the compound under test in 0.9% sodium chloride. […] Thus, for eucatropine derivatives, solutions were prepared to correspond to one percent eucatropine.HCl. After installation of the solution, the lids of the treated eye were held closed for one minute to prevent the loss of the test dose. After this time the lids were held open by gentle finger pressure, and the cornea and conjunctival sac irrigated with one mL of 0.9% aqueous sodium chloride applied in drops from a 10 mL syringe. The procedure was repeated in the other eye using 0.1 mL 0.9% saline as a control. Each rabbit was treated at two to three minutes following the preceding rabbit.
Observation of the rabbit eye pupil size was made at 30, 60 and 120 minutes after treatment by directing a penlight beam into each pupil. The response of both pupils to light was observed. Any degree of contraction of the pupil of the treated eye which was obviously less than that of the untreated eye was recorded as incomplete (partial) inhibition of the reflex. Failure of the pupil of the treated eye to contract in response to light was recorded as complete inhibition of the reflex. The responses of each rabbit were recorded. Both partial and complete inhibition were recorded as inhibited. The animals were not used again for at least 72 hours and the same eye was not used for treatment by test solutions in successive experiments.

[3] = esters synthesized by DCC method
[4] = esters synthesized by DCC method, fraction of animals with inhibition at 60 min, 1% solutions based on eucatropine
[5] = esters synthesized via acid chloride
[6] = esters synthesized via acid chloride, fraction of animals with inhibition at 60 min, 1% solutions based on eucatropine

Compound	antiperspirant potency relative to eucatropine (in words) [1]	pEC50 [1, 3]	RALR (60 min.) ([2]; rabbit, in vivo)	RALR (60 min.) [2, 4]	further results
CC1CC(OC(=O)C(OC(=O)c2cnccn2)c2ccccc2)CC(C)(C)N1C.Cl (centres unmarked)	a reduction in EC50 over eucatropine	1.96	0.80	–	mydriasis in the rabbit eye (in words) ([2]; rabbit, in vivo): reduced mydriasis
CC1CC(OC(=O)C(OC(=O)c2cnc3ccccc3c2)c2ccccc2)CC(C)(C)N1C.Cl (centres unmarked)	a reduction in EC50 over eucatropine	2.00	–	0.73	mydriasis in the rabbit eye (in words) ([2]; compared with eucatropine): reduced mydriasis
CC1CC(OC(=O)C(OC(=O)c2ccc(N(C)C)cc2)c2ccccc2)CC(C)(C)N1C.Cl (centres unmarked)	–	1.60	–	0.27	–
CC1CC(OC(=O)C(OC(=O)c2ccnc3ccccc23)c2ccccc2)CC(C)(C)N1C.Cl (centres unmarked)	a reduction in EC50 over eucatropine	–	–	0.60	mydriasis in the rabbit eye (in words) ([2]; compared with eucatropine): reduced mydriasis
CC1CC(OC(=O)C(OC(=O)C2CCC2)c2ccccc2)CC(C)(C)N1C.Cl (centres unmarked)	–	1.74	1.00	–	–
CC1CC(OC(=O)C(OC(=O)C2CCCCC2)c2ccccc2)CC(C)(C)N1C.Cl (centres unmarked)	–	1.39	–	–	pEC50 [1, 5]: 1.37
CC1CC(OC(=O)C(OC(=O)CC2CCCCC2)c2ccccc2)CC(C)(C)N1C.Cl (centres unmarked)	–	1.06	0.67	–	–
CC1CC(OC(=O)C(OC(=O)CC2CCCC2)c2ccccc2)CC(C)(C)N1C.Cl (centres unmarked)	–	1.17	1.00	–	–
CC1CC(OC(=O)C(OC(=O)C2CC2)c2ccccc2)CC(C)(C)N1C.Cl (centres unmarked)	–	2.33 and 2.32	1.00	–	pEC50 [1, 5]: 1.44
CC1CC(OC(=O)C(OC(=O)c2ccncc2)c2ccccc2)CC(C)(C)N1C.Cl (centres unmarked)	only a slight decrease in antiperspirant potency relative to eucatropine	2.28	0.00	–	mydriasis in the rabbit eye (in words) ([2]; rabbit, in vivo): no mydriasis
CC1CC(OC(=O)C(OC(=O)c2ccccn2)c2ccccc2)CC(C)(C)N1C.Cl (centres unmarked)	only a slight decrease in antiperspirant potency relative to eucatropine	2.70	0.40	–	–
CC1CC(OC(=O)C(OC(=O)C(Cl)c2ccccc2)c2ccccc2)CC(C)(C)N1C.Cl (centres unmarked)	equalled or nearly equalled that of the parent eucatropine	2.85	–	–	–
COc1ccc(C(=O)OC(C(=O)OC2CC(C)N(C)C(C)(C)C2)c2ccccc2)cc1.Cl (centres unmarked)	–	1.80	–	–	–
O=C(O)C1CCCC1 [Cyclopentanecarboxylate]	–	1.11	0.67	–	–
CC1CC(OC(=O)C(O)c2ccccc2)CC(C)(C)N1C (centres unmarked) [H, eucatropine]	–	–	1.00	–	pEC50 ([1]; Mus musculus, sc, parent eucatropine (ester group H)): 2.14; incomplete response (light reflex) in rabbits at 60 minutes ([2]; rabbit, in vivo): eight out of eight
CC(C)C(=O)O [Isobutyrate]	–	2.80	0.88	–	–
CC1CC(OC(=O)C(OC(=O)c2cccnc2)c2ccccc2)CC(C)(C)N1C.Cl (centres unmarked) [Nicotinate]	only a slight decrease in antiperspirant potency relative to eucatropine	2.19	–	0.60	–
CCCCCCCC(=O)OC(C(=O)OC1CC(C)N(C)C(C)(C)C1)c1ccccc1.Cl (centres unmarked) [Octanoate]	–	1.96	–	0.93	pEC50 [1, 5]: 2.02; RALR (60 min.) [2, 6]: 0.50
Cc1ccc(C(=O)OC(C(=O)OC2CC(C)N(C)C(C)(C)C2)c2ccccc2)cc1.Cl (centres unmarked) [p-Toluate]	–	1.08	–	–	–
Benzoate	more potent than eucatropine	3.52	–	0.88 and 0.87	pEC50 [1, 5]: 1.60; RALR (60 min.) [2, 6]: 0.20
Phenylacetate	equalled or nearly equalled that of the parent eucatropine	2.28	–	1.00	pEC50 [1, 5]: 1.11; RALR (60 min.) [2, 6]: 0.47
